Patent US20200278343A1, “DIRECT VISUALIZATION OF INTEGRATED STRESS RESPONSE ACTIVITY” (priority 2019, published 2020)

Legend:
[1] = system: IRE1; assay: Xbp-1 splicing assay (RT-PCR) in HEK-293T cells; format: cell-based, human; settings: 1 mM DTT, 2 h
[2] = system: Integrated Stress Response; assay: UL148-GFP visual probe for ISR inhibition in living cells; format: cell-based; settings: ARPE-19 cells, UL148-GFP induced 18 hours with 100 ng/mL doxycycline hyclate; 200 nM ISRIB in FIG. 2B
Excerpt: The disclosed technology is based on UL148, a viral endoplasmic reticulum (ER)-resident protein, which influences the expression of a viral glycoprotein complex required for cell entry. UL148 activates the Unfolded Protein Response (UPR), resulting in stress-regulated translation of ISR mRNAs such as ATF4. ISR/UPR activation by UL148 causes the formation of large membranous structures from the ER, at which UL148 itself accumulates. […] Other fluorescent proteins may include Allophycocyanin, Brainbow, Cameleon, FMN-binding fluorescent protein, Glutamate-sensitive fluorescent reporter, MCherry, Phycoerythrin, Red fluorescent protein, RoGFP, SmURFP, Synapto-pHluorin, and Yellow fluorescent protein. […] Instead, treatment with an ISR-inhibitor (e.g., ISRIB) causes UL148-GFP to be evenly distributed across the ER such that the GFP staining is uniform and reticular. Therefore, the simple task of determining whether GFP signal is present and whether it is uniform or punctate provides a facile read-out that can be automated to enable high throughput screening for novel small molecule inhibitors that inhibit the ISR.
ARPE-19 epithelial cells carrying a doxycycline inducible gene expression cassette encoding UL148-GFP were treated for 18 hours with 100 ng/mL doxycycline hyclate to induce UL148-GFP expression. In panel A, (FIG. 2A) UL148-GFP was induced in the absence of ISRIB. […]

[3] = system: PERK; assay: Western blot for PERK activation in stably transduced ARPE-19 cells; format: cell-based; settings: 200 nM Tg, 4 h
[4] = system: IRE1; assay: Western blot for phospho-IRE1 (Ser724) in fibroblasts; format: cell-based, human; settings: Tg-treated fibroblast lysates vs mock-treated, noninfected cells
[5] = system: protein synthesis (mRNA translation) in ARPE-19 cells; assay: Metabolic labeling (35S Met/Cys incorporation) in i148HA and i159HA ARPE-19 cells; format: cell-based; settings: 24 h Dox induction, 30 min 35S Met/Cys pulse, phosphorimager analysis
Method: Having isolated stably transduced ARPE-19 cell populations, the inventors confirmed that that anti-HA immunoreactive polypeptides of the expected size for UL148 (i148^HA) or Rh159 (i159^HA) were induced upon treatment with 100 ng/ml doxycycline (Dox). Furthermore, expression of neither protein caused any overt reduction in cell viability or number, as measured by trypan blue exclusion following 24 h of Dox induction. The inventors therefore concluded that the i148^HA and i159^HA ARPE-19 cells were suitable to address whether UL148 might affect rates of mRNA translation in metabolic labeling studies. For these experiments, i148^HA and i159^HA cells were induced (or mock induced) for transgene expression for 24 h and then incubated in the presence of ^35S-labeled methionine and cysteine for 30 min. In parallel, labeling was also carried out using i159^HA cells that were incubated in the presence of either thapsigargin (Tg) or carrier alone, so as to provide positive and negative controls, respectively, for UPR induction.
Metabolic labeling. i159^HA or i148^HA cells were seeded at 2×10^5 cells per well in a 24-well cluster plate in Gibco Opti-MEM reduced serum medium (Thermo Fisher) supplemented with 2.5% tetracycline (Tet)-free FBS (Clontech 631101). […] The relative signal per lane was calculated using Bio-Rad 1-D analysis software by reading the signal volume (counts·mm^2) in each lane. […]

O[C@H](CS)[C@H](O)CS (racemic) [DTT, dithiothreitol]
splicing of the 26-nt intron from Xbp-1 mRNA [1]: spliced from nearly all the Xbp-1 mRNA

O=C(COc1ccc(Cl)cc1)NC1CCC(NC(=O)COc2ccc(Cl)cc2)CC1 (centres unmarked) [ISRIB]
formation of UL148 structures [2]: completely blocks the formation of UL148 structures

C/C=C(/C)C(=O)O[C@H]1C(C)=C2[C@H]([C@@H]1OC(=O)CCCCCCC)[C@@](C)(OC(C)=O)C[C@H](OC(=O)CCC)[C@@]1(O)[C@H]2OC(=O)[C@@]1(C)O [Tg, thapsigargin]
decreased mobility of the anti-PERK immunoreactive band (PERK autophosphorylation) [3]: readily observed
phospho-IRE1 signal [4]: robust phospho-IRE1 signal

B1: UL148: viral ER-resident glycoprotein from human cytomegalovirus, ectopically expressed with a C-terminal HA tag (protein, UniProt F5H8Q3 21-316, looked up)
Membrane protein UL148: SRDYVHVRLLSYRGDPLVFKHTFSGVRRPFTELGWAACRDWDSMHCTPFWSTDLEQMTDSVRRYSTVSPGKEVTLQLHGNQTVQPSFLSFTCRLQLEPVVENVGLYVAYVVNDGERPQQFFTPQVDVVRFALYLETLSRIVEPLESGRLTVEFDTPDLALAPDLVSSLFVAGHGETDFYMNWTLRRSQTHYLEEMALQVEILKPRGVRHRAIIHHPKLQPGVGLWIDFCVYRYNARLTRGYVRYTLSPKARLPAKAEGWLVSLDRFIVQYLNTLLITMMAAIWARVLITYLVSRRR
modifications: C-terminal HA tag
decrease in protein synthesis compared to carrier-alone control [5]: ~50%
